Measured values as given in the supplement of paper PMC8239392.

Legend:
[1] = test system: TAZ-IND MCF10A-TAZ tumor cells; assay: cell viability relative to DMSO control; higher = less cytotoxic; extreme values may be limits of the assay; details: 72 h
Method: (§1)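 TAZ-dependent (grown with 2 ug/ml dox) and TAZ-independent MCF10A-TAZ tumor-derived breast cancer stem-like cells were plated in 384-well plates and treated with serially diluted compounds (0.65-10 uM) for 72 h. Viability was read by resazurin assay and expressed as % of DMSO-treated control.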

[2] = test system: TAZ-DEP MCF10A-TAZ tumor cells; assay: as above; details: 72 h
Method: as §1

Structure (SMILES) | cell viability ([1]; 0.65 µM) | cell viability ([1]; 1.25 µM) | cell viability ([1]; 2.5 µM) | cell viability ([1]; 5 µM) | cell viability ([1]; 10 µM) | cell viability ([2]; 0.65 µM) | cell viability ([2]; 1.25 µM) | cell viability ([2]; 2.5 µM) | cell viability ([2]; 5 µM) | cell viability ([2]; 10 µM)
CC(=O)c1c(C)c2cnc(Nc3ccc(N4CCNCC4)cn3)nc2n(C2CCCC2)c1=O | 100% | 100% | 100% | 100% | 96% | 79% | 73% | 70% | 59% | 41%
CCN(CC)CCCC(C)Nc1nc(C)cc(Nc2ccc3nc(C)cc(N)c3c2)n1 (stereo not given) | 80% | 81% | 90% | 80% | 73% | 50% | 54% | 47% | 50% | 34%
CN1CCN(CCCNc2ncc(Cl)c(-c3cc4c(C(=O)NC5CC5)cccc4s3)n2)CC1 | 94% | 91% | 87% | 84% | 80% | 74% | 67% | 63% | 63% | 65%
COc1ccccc1S(=O)(=O)Nc1ccc2c(c1)CN(C)C(=O)N2 | 100% | 100% | 94% | 91% | 85% | 91% | 79% | 63% | 54% | 41%
Cc1c(Cc2ccc3ccccc3n2)c2cc(F)ccc2n1CC(=O)O | 90% | 94% | 90% | 77% | 55% | 90% | 82% | 69% | 57% | 33%
O=C(NOC[C@H](O)CO)c1ccc(F)c(F)c1Nc1ccc(I)cc1F | 82% | 87% | 84% | 80% | 78% | 52% | 56% | 53% | 47% | 48%
O=C(O)c1cc2cccc([N+](=O)[O-])c2[nH]1 | 100% | 100% | 100% | 97% | 70% | 100% | 98% | 87% | 47% | 2%
O=C1NC(=O)/C(=C/c2ccc(-c3ccc(F)cc3O)o2)S1 | 72% | 75% | 72% | 67% | 63% | 62% | 53% | 51% | 46% | 43%
O=[N+]([O-])C=Cc1ccc2c(c1)OCO2 | 100% | 99% | 98% | 98% | 31% | 100% | 100% | 100% | 78% | 1%
CN(C)CCSSCCNC(=O)C1CCN(C(=O)CSc2ccc(Cl)cc2)CC1 [6H05] | 99% | 98% | 92% | 88% | 83% | 96% | 91% | 89% | 66% | 23%
COCCOc1cnc2ccn([C@H](C)c3nnc4c(F)cc(-c5cnn(C)c5)cn34)c(=O)c2c1 [AMG 337] | 97% | 97% | 100% | 97% | 100% | 88% | 84% | 77% | 68% | 60%
COC1CCN(C(=O)c2cc(Cc3n[nH]c(=O)c4ccccc34)ccc2F)CC1 [AZD2461] | 94% | 89% | 91% | 83% | 78% | 94% | 91% | 94% | 70% | 56%
Cc1[nH]nc(C(F)(F)F)c1Cc1sc2c(c1C(=O)N1C[C@](C)(O)CO1)c(=O)n(C)c(=O)n2C(C)C [AZD3965] | 92% | 87% | 91% | 60% | 47% | 54% | 49% | 45% | 39% | 32%
C[C@H]1COC2=C1C(=O)C(=O)c1c2ccc2c1CCCC2(C)C [Cryptotanshinone] | 96% | 97% | 93% | 87% | 79% | 96% | 94% | 92% | 74% | 30%
NCCCC[C@@H]1NC(=O)[C@@H](Cc2ccc(O)cc2)NC(=O)[C@H](CC(=O)O)NC(=O)CNC(=O)[C@H](CCCN=C(N)N)NC1=O [Cyclo(RGDyK)] | 98% | 94% | 86% | 74% | 65% | 99% | 86% | 59% | 49% | 27%
CCCCCCCCCCCC1=C(O)C(=O)C=C(O)C1=O [Embelin] | 89% | 90% | 90% | 89% | 82% | 89% | 84% | 75% | 57% | 28%
CCn1c2ccccc2c2cc(CNCc3ccccc3OC)ccc21 [HLCL-61] | 97% | 99% | 100% | 100% | 95% | 100% | 100% | 100% | 89% | 59%
C#Cc1cccc(Nc2ncnc3cc4c(cc23)OCCOCCOCCO4)c1 [Icotinib] | 100% | 100% | 100% | 100% | 96% | 100% | 100% | 100% | 89% | 34%
Nc1nc(OCc2cc(Br)cs2)c2[nH]cnc2n1 [Lomeguatrib] | 96% | 98% | 97% | 100% | 85% | 96% | 91% | 90% | 55% | 36%
O=C([C@@H](Cc1cccc(C(F)(F)F)c1)NS(=O)(=O)c1cc(F)c2c(c1)CCNC2)N1CCCC1 [PFI-2] | 97% | 94% | 92% | 85% | 78% | 94% | 85% | 72% | 56% | 46%
O=C(/C=C/c1ccc2ccccc2n1)c1ccncc1 [PFK15] | 98% | 98% | 99% | 95% | 97% | 100% | 100% | 81% | 47% | 31%
CCc1nc(N)nc(N)c1-c1ccc(Cl)cc1 [Pyrimethamine] | 100% | 100% | 100% | 100% | 98% | 100% | 100% | 98% | 85% | 56%
COc1cc(F)c(F)c(Nc2ccc(I)cc2F)c1NS(=O)(=O)C1(C[C@H](O)CO)CC1 [Refametinib (RDEA119, Bay 86-9766)] | 84% | 82% | 80% | 77% | 71% | 53% | 51% | 51% | 51% | 50%
CC(C)N(CCCNC(=O)Nc1ccc(C(C)(C)C)cc1)C[C@H]1O[C@@H](n2cc(Br)c3c(N)ncnc32)[C@H](O)[C@@H]1O [SGC 0946] | 94% | 89% | 79% | 34% | 1% | 89% | 83% | 78% | 63% | -1%
CC(C)(C)c1ccc(S(=O)(=O)NCc2ccc(C(=O)Nc3cccnc3)cc2)cc1 [STF-31] | 99% | 100% | 100% | 97% | 96% | 100% | 100% | 100% | 99% | 98%
